From ChEMBL document CHEMBL5465560, “Selectivity Literature for EUbOPEN Chemogenomic Library” (2024) come the findings set out here.

In experiment [1] the target is T1, Glycogen synthase kinase-3 alpha (Homo sapiens, UniProt P49840). The experiment in a line: Selectivity interaction (Rxn Biology Kinase assay) EUB0001632a GSK3A. The settings on record: at 10 µM.
The target of experiment [2] is T2, Activin receptor type-1B (Homo sapiens) (UniProt P36896).
T2 sequence (whole entry): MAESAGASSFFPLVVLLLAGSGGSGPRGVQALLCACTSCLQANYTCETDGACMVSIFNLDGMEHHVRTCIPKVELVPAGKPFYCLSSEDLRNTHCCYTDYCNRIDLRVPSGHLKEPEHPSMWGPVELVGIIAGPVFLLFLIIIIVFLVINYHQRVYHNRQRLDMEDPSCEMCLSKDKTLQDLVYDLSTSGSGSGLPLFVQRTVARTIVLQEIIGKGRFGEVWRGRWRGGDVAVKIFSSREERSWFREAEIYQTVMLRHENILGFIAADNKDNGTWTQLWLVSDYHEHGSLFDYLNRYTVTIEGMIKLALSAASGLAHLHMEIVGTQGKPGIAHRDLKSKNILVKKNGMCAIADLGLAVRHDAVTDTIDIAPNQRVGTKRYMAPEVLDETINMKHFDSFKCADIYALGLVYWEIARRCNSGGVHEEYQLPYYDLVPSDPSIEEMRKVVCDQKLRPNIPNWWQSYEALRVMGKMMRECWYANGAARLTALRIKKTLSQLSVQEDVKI
The experiment in a line: Selectivity interaction (SelectScreen profiling (Invitrogen)) EUB0000607a ACVR1B. Conditions: at 2 µM.

Experiment [3] relates to Tyrosine-protein kinase ABL1 (Homo sapiens), P00519 [T315I]. The settings on record: at 10 µM.
Experiment [4] concerns the target Insulin-like growth factor 1 receptor (Homo sapiens, UniProt P08069). The experiment in a line: Selectivity interaction (Kinase screening (Nanosyn)) EUB0000604a IGF1R.
For experiment [5], the target named is Serine/threonine-protein kinase MARK1 (Homo sapiens) (UniProt Q9P0L2). Nature of the experiment: Selectivity interaction (Kinase screening (Nanosyn)) EUB0000604a MARK1.
Experiment [6] has as its target Mast/stem cell growth factor receptor Kit (Homo sapiens, UniProt P10721). Nature of the experiment: Selectivity interaction (Kinase panel (Invitrogen)) EUB0000639a KIT. Conditions: at 200 nM.
For experiment [7], the target named is Macrophage-stimulating protein receptor (Homo sapiens, UniProt Q04912). Nature of the experiment: Selectivity interaction (Kinase panel (Invitrogen)) EUB0000639a MST1R. The settings on record: at 200 nM.
The target of experiment [8] is Wee1-like protein kinase 2 (Homo sapiens) (UniProt P0C1S8). Nature of the experiment: Selectivity interaction (KinomeScan (DiscoverX)) EUB0000045b WEE2.
Experiment [9] deals with Mitogen-activated protein kinase kinase kinase 10 (Homo sapiens) (UniProt Q02779). Nature of the experiment: Selectivity interaction (KinomeScan (DiscoverX)) EUB0000045b MAP3K10.
Experiment [10] concerns the target T3, Phosphatidylinositol 5-phosphate 4-kinase type-2 beta (Homo sapiens) (UniProt P78356).
T3 sequence (whole entry): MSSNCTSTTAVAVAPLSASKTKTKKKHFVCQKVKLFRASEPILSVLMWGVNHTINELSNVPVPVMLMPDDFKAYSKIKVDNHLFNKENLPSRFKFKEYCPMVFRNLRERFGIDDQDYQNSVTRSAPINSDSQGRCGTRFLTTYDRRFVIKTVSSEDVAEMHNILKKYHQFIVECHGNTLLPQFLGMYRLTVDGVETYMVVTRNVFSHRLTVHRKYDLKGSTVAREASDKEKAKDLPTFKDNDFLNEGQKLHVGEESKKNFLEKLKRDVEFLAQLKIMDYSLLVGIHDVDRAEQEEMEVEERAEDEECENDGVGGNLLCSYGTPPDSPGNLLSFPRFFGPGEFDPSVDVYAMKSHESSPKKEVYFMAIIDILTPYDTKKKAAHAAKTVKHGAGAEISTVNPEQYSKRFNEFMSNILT
Nature of the experiment: Selectivity interaction (KinomeScan (DiscoverX)) EUB0000618a PIP4K2B. Conditions: at 10 µM.

The target of experiment [11] is T4, Atypical kinase COQ8B, mitochondrial (Homo sapiens) (UniProt Q96D53).
T4 sequence (whole entry): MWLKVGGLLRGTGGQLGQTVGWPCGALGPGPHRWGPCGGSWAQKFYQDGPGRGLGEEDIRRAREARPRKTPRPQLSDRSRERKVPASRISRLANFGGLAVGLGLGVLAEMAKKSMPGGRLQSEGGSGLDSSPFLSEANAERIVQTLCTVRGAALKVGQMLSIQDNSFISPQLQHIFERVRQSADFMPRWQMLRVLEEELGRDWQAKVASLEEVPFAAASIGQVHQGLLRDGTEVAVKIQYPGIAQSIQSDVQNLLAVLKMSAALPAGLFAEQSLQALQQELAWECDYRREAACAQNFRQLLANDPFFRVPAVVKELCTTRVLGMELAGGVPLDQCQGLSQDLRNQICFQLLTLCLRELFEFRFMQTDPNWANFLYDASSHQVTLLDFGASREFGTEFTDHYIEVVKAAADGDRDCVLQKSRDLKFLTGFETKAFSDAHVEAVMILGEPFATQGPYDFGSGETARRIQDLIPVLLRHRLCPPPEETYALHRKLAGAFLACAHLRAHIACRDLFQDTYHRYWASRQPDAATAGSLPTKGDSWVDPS
The experiment in a line: Selectivity interaction (KinomeScan (DiscoverX)) EUB0001079a ADCK4. The settings on record: at 1 µM.

Experiment [12] has as its target Cannabinoid receptor 2 (Homo sapiens) (UniProt P34972). The experiment in a line: Selectivity interaction (Panel of kinases, GPCRs, ion channels and transporters (enzymatic assay)) EUB0000266bCl CNR2.
Experiment [13] addresses Receptor-type tyrosine-protein kinase FLT3 (Homo sapiens) (UniProt P36888). The experiment in a line: Selectivity interaction (KinomeScan (DiscoverX)) EUB0000229b FLT3. Conditions: at 10 µM.
Experiment [14] concerns the target T1, Glycogen synthase kinase-3 alpha. Nature of the experiment: Selectivity interaction (KinomeScan (DiscoverX)) EUB0000229b GSK3A. Conditions: at 10 µM.

Chain of Wee1-like protein kinase 2 (Homo sapiens) (P0C1S8 whole entry, looked up): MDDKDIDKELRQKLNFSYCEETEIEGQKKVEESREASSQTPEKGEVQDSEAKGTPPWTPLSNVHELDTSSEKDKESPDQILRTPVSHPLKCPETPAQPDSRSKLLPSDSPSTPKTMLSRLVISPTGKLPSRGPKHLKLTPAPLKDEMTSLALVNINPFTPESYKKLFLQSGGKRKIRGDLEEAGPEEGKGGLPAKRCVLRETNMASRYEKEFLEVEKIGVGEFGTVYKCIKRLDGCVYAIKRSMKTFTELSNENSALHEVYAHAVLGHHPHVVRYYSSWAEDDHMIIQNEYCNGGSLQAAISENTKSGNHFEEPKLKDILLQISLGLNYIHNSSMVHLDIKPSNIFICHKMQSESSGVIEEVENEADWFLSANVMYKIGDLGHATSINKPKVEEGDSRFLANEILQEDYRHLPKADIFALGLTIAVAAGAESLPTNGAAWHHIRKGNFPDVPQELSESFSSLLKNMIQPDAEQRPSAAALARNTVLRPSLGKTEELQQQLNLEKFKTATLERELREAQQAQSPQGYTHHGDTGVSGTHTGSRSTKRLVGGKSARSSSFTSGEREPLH
Chain of Mitogen-activated protein kinase kinase kinase 10 (Homo sapiens) (Q02779 whole entry, looked up): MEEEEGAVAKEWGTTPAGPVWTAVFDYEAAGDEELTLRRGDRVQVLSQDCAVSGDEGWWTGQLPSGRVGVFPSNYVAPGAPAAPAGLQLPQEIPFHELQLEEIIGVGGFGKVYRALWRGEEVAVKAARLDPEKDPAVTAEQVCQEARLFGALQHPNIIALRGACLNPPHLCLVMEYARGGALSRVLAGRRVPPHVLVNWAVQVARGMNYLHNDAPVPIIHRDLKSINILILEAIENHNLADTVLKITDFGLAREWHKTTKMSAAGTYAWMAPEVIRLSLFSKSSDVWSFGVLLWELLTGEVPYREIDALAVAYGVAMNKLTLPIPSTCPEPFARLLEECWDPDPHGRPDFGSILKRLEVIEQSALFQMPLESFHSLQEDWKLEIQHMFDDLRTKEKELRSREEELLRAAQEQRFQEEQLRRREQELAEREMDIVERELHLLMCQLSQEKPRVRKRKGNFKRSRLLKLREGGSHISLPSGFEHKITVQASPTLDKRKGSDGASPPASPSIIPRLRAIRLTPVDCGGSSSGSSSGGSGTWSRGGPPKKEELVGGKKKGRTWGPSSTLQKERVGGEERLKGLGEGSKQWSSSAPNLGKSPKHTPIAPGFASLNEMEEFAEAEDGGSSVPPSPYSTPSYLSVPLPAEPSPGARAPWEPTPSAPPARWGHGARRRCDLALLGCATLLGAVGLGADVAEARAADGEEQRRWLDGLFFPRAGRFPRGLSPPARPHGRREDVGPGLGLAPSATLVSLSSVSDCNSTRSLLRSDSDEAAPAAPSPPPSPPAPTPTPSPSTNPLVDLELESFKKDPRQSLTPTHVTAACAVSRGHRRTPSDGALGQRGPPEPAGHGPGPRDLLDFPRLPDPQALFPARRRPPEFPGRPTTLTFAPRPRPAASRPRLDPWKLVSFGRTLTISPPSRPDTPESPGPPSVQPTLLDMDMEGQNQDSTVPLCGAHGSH
T1 sequence (P49840 2-483 limits assumed): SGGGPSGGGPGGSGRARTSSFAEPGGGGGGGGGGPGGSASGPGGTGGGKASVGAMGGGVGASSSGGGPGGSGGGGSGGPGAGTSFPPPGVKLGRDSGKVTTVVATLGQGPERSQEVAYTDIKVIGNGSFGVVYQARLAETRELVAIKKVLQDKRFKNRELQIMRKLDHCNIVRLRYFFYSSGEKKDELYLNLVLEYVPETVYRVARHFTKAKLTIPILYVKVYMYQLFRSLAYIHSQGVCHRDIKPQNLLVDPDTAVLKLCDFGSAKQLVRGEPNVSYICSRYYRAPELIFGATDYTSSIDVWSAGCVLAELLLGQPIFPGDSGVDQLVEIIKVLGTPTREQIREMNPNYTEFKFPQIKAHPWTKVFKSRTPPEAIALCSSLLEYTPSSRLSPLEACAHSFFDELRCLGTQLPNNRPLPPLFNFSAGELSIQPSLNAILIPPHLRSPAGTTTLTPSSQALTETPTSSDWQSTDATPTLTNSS
Chain of Mast/stem cell growth factor receptor Kit (P10721 whole entry): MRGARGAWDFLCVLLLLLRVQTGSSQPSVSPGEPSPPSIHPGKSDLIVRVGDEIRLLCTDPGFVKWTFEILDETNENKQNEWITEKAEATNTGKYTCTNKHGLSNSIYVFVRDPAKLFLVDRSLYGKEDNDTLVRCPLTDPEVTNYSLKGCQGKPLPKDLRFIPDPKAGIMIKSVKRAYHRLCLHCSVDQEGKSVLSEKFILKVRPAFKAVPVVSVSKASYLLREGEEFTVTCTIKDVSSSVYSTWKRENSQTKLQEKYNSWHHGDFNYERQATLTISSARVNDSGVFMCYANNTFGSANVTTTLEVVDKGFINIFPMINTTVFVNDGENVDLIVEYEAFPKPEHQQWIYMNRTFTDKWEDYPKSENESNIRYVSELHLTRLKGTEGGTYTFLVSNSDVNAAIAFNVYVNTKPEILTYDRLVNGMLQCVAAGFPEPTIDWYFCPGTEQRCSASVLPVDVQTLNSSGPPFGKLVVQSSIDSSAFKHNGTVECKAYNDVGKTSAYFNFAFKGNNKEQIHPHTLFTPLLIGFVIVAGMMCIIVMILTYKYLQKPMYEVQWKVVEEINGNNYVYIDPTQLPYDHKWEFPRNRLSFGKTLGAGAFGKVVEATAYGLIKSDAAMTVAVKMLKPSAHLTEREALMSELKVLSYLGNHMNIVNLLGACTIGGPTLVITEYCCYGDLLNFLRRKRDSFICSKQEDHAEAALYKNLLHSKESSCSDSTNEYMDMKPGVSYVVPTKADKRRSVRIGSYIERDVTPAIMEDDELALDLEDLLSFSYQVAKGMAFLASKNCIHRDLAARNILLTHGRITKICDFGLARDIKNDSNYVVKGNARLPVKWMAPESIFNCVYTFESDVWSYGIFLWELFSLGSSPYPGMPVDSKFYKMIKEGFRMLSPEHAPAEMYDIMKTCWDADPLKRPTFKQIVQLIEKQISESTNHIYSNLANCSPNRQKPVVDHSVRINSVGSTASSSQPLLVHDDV
Chain of Macrophage-stimulating protein receptor (Q04912 25-304 limits assumed): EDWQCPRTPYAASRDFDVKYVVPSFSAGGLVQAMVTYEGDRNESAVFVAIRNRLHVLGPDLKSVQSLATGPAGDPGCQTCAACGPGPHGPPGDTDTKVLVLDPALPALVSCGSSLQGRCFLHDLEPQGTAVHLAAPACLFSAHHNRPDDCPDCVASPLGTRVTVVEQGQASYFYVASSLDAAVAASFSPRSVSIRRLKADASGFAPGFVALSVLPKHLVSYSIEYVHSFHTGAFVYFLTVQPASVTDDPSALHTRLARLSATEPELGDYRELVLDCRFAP
Chain of Macrophage-stimulating protein receptor (Q04912 310-1400 limits assumed): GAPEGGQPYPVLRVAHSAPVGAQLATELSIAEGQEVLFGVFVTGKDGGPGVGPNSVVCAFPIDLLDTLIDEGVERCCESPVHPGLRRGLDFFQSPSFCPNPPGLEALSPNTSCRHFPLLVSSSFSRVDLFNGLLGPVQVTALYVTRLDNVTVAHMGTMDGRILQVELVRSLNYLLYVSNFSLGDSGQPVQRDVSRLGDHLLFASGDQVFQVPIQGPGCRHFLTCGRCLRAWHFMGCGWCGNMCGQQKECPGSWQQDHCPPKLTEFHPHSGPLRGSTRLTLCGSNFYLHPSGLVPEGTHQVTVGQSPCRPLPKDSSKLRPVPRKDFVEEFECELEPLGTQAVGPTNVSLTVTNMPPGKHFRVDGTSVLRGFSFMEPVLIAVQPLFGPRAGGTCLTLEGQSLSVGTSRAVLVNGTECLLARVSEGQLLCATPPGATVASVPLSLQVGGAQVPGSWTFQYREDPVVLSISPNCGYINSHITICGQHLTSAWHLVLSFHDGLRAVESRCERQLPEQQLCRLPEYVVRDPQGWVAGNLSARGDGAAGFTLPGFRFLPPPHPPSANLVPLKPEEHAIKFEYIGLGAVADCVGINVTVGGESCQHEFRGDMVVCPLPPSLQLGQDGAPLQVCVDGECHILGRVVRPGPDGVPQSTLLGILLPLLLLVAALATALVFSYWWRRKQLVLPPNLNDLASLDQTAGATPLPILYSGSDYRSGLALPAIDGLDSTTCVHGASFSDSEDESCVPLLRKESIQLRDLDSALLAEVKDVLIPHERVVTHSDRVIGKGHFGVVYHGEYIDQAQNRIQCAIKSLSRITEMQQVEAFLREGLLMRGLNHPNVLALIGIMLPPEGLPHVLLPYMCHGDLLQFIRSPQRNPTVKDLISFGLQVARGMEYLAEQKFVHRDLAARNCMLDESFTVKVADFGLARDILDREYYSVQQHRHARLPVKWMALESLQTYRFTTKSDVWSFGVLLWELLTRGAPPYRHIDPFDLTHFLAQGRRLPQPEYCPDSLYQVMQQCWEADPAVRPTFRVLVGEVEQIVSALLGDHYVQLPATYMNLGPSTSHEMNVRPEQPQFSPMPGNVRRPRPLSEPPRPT
Chain of Cannabinoid receptor 2 (Homo sapiens) (P34972 whole entry): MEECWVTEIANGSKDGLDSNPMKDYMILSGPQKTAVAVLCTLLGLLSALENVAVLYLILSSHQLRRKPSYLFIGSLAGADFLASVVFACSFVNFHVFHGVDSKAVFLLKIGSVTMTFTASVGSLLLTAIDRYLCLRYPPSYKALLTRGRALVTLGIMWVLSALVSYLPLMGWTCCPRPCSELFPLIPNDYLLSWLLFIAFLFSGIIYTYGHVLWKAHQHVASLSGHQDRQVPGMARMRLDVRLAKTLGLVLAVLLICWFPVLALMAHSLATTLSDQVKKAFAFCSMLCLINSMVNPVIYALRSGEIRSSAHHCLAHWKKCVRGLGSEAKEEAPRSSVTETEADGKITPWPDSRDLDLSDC

`Cn1cc(-n2cnc3c(NCc4nc5cc(Cl)c(Cl)cc5[nH]4)nc(N4CCOCC4)nc32)cn1` showed a % of inhibition in experiment [1] of 90.6%.
For the compound `CNC(=O)Nc1ccc(-c2nc(N3CC4CCC(C3)O4)c3cnn(C4CCC5(CC4)OCCO5)c3n2)cc1`, in experiment [2], the % of inhibition was determined as 3%.
For `Cc1cc([C@@H](C)Nc2ccccc2C(=O)O)c2nc(N3CCOCC3)cc(=O)n2c1` [AZD-6482], in experiment [3], the % of control came to 70%.
Regarding `Cc1cnc(Nc2ccc(F)cc2Cl)nc1-c1c[nH]c(C(=O)N[C@H](CO)c2cccc(Cl)c2)c1`, the % of inhibition in experiment [4] turned out to be 2%; in experiment [5], 12%.
Take `CC[C@@H]1[C@H](F)C(=O)N[C@@H]1COc1nccc2cc(C(N)=O)c(OC)cc12` [ZIMLOVISERTIB]: the values for the % of inhibition in experiment [6] and in experiment [7] were 0.275% and 12.6%, respectively.
With `C=CC(=O)Nc1cc(-n2c(=O)ccc3cnc4ccc(-c5ccc(NS(C)(=O)=O)cc5)cc4c32)ccc1C`, the % of control in experiment [8] (at 1 µM) worked out at 66%; in experiment [8] (at 10 µM) it was 100%; in experiment [9] (at 1 µM), 100%; in experiment [9] (at 10 µM), 100%.
Consider `O[C@H]1CC[C@H](Nc2ncc3nc(Nc4c(F)cc(F)cc4F)n([C@H]4CCOC4)c3n2)CC1`, for which the % of control in experiment [10] was 98%.
For `Nc1cnc(N2CCc3cc(S(=O)(=O)Nc4c(F)cc(Cl)cc4F)cc(N4CCCC4=O)c32)nc1` [TP-020n], the % of control in experiment [11] was determined as 100%.
`CCn1c(-c2nc3cc(C(=O)N4CCCC(N)C4)ccc3n2C)cc2ccccc21` (stereo unspecified): the pXC50 in experiment [12] was below 4 M.
Turning to `COc1cc(N(C)c2ccnc3ccc(C(F)(F)F)cc23)cc(OC)c1OC`, the figures for the % binding in experiment [13] and in [14] were 85% and 93%, respectively.
